{
  "source": "ChEMBL document CHEMBL1811812",
  "about": "“Identification of a novel selective H1-antihistamine with optimized pharmacokinetic properties for clinical evaluation in the treatment of insomnia” (Bioorg Med Chem Lett, 2010)",
  "key": {"[1]": {"system": "Rattus norvegicus", "assay": "Effect on sleep-awake cycle in EEG/EMG rat model assessed as latency to 1 min NREM sleep at 60 mg/kg measured up to 4 hrs relative to control", "type": "functional"}, "[2]": {"system": "Rattus norvegicus", "assay": "Effect on sleep-awake cycle in EEG/EMG rat model assessed as increase in non rapid eye movement sleep at 60 mg/kg measured up to 4 hrs relative to control", "type": "functional"}, "[3]": {"system": "Rattus norvegicus", "assay": "Effect on sleep-awake cycle in EEG/EMG rat model assessed as increase in non rapid eye movement sleep at 30 mg/kg measured up to 4 hrs relative to control", "type": "functional"}, "[4]": {"system": "Rattus norvegicus", "assay": "Effect on sleep-awake cycle in EEG/EMG rat model assessed as latency to 1 min NREM sleep at 30 mg/kg measured up to 4 hrs relative to control", "type": "functional"}, "[5]": {"system": "Rattus norvegicus", "assay": "Effect on sleep-awake cycle in EEG/EMG rat model assessed as increase in non rapid eye movement sleep at 3 mg/kg measured up to 4 hrs relative to control", "type": "functional"}, "[6]": {"system": "Rattus norvegicus", "assay": "Effect on sleep-awake cycle in EEG/EMG rat model assessed as latency to 1 min NREM sleep at 3 mg/kg measured up to 4 hrs relative to control", "type": "functional"}, "[7]": {"assay": "Dissociation constant, pKa of the compound"}, "[8]": {"target": "Cytochrome P450 3A4 (Homo sapiens, UniProt P08684)", "sequence (P08684 whole entry)": "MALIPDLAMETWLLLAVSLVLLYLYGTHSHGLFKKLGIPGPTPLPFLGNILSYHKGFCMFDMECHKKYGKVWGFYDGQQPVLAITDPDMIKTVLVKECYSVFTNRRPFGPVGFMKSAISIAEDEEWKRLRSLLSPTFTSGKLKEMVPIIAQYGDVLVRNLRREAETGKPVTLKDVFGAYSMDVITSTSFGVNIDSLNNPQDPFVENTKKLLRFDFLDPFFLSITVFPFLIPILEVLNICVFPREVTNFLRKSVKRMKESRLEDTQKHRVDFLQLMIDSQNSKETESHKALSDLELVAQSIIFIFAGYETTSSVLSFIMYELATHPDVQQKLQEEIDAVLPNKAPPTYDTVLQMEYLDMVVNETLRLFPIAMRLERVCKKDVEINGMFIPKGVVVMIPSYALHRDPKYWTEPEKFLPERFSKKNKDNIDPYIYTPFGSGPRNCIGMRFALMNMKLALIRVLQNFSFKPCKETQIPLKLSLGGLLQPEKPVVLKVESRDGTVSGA"}, "[9]": {"assay": "clinical", "conditions": "human, plasma, 0.1 mg/kg", "description": "AUC (0 to t) in human at 0.1 mg/kg"}, "[10]": {"assay": "AUC (0 to t) in human at […], po", "type": "ADME, organism-based", "parameters": "route oral", "conditions": "plasma"}, "[11]": {"assay": "Clearance in EEG/EMG rat model", "conditions": "in vivo"}, "[12]": {"assay": "Systemic clearance in human at […]", "type": "ADME, organism-based", "conditions": "in vivo"}, "[13]": {"assay": "Plasma concentration in human at […] after 1 hr", "type": "ADME, organism-based"}, "[14]": {"assay": "Half life in human at […], po", "type": "ADME, organism-based", "parameters": "route oral", "conditions": "in vivo"}, "[15]": {"assay": "clinical", "conditions": "human, in vivo, po, 0.1 mg/kg", "description": "Half life in human at 0.1 mg/kg, po and iv administered as single dose"}, "[16]": {"organism": "Homo sapiens", "assay": "Selectivity for histamine H1 receptor over histamine H2 receptor in human conjuctival mast cells"}, "[17]": {"assay": "Inhibition of H2 receptor"}, "[18]": {"assay": "Elimination half life in human at 50 mg by RIA", "type": "ADME, organism-based", "conditions": "in vivo, read-out: beta t1/2 (converted)"}, "[19]": {"organism": "Homo sapiens", "assay": "Antiinsomnic activity in human assessed as duration of sleep maintenance at 1 mg", "type": "functional"}, "[20]": {"organism": "Homo sapiens", "assay": "Antiinsomnic activity in human assessed as duration of sleep maintenance at 1 mg after 8 hrs", "type": "functional, organism-based"}, "[21]": {"organism": "Homo sapiens", "assay": "Toxicity in human assessed as residual effect at 1 mg to 3 mg", "type": "organism-based", "conditions": "in vivo"}},
  "note": "The source made the active and inactive calls. The calls are words filed in the database; no cut-off is given here.",
  "data": [
    {"smiles": "C[C@H](C1=C(CCN(C)C)Cc2ccccc21)c1cnccn1", "values": [
      {"measurement": "Activity", "setting": "[1]", "result": 109, "unit": "%"},
      {"measurement": "Activity", "setting": "[2]", "result": 145, "unit": "%"}
    ]},
    {"smiles": "Cc1ccc(-c2nc3ccc(C)cn3c2CC(=O)N(C)C)cc1", "note": "[ZOLPIDEM]", "values": [
      {"measurement": "Activity", "setting": "[3]", "result": 205, "unit": "%"},
      {"measurement": "Activity", "setting": "[4]", "result": 17, "unit": "%"}
    ]},
    {"smiles": "CN(C)CCC1=C(Cc2cccnn2)c2ccc(F)cc2C1", "values": [
      {"measurement": "Activity", "setting": "[5]", "result": 136, "unit": "%"},
      {"measurement": "Activity", "setting": "[6]", "result": 106, "unit": "%"}
    ]},
    {"smiles": "C[C@@H](c1ccccn1)c1c(CCN(C)C)sc2ccccc12", "values": [
      {"measurement": "pKa", "setting": "[7]", "result": 8.5},
      {"measurement": "IC50", "setting": "[8]", "result": "> 10000", "unit": "nM"},
      {"measurement": "Activity", "setting": "[3]", "result": 142, "unit": "%"},
      {"measurement": "Activity", "setting": "[4]", "result": 124, "unit": "%"},
      {"measurement": "AUC(0-t)", "setting": "[9]", "result": 2.8, "unit": "ng·h/mL"},
      {"measurement": "AUC(0-t)", "setting": "[10]", "result": 1.9, "unit": "ng·h/mL"},
      {"measurement": "clearance", "setting": "[11]", "result": "> 68", "unit": "mL/min/kg"},
      {"measurement": "clearance", "setting": "[12]", "result": 3.8, "unit": "mL/min/kg"},
      {"measurement": "concentration at 1 h", "setting": "[13]", "result": 4, "unit": "ng/mL"},
      {"measurement": "half-life", "setting": "[14]", "result": 3.6, "unit": "h"},
      {"measurement": "half-life", "setting": "[15]", "result": 6.8, "unit": "h"}
    ]},
    {"smiles": "C[C@H](C1=C(CCN(C)C)Cc2ccccc21)c1ccccn1", "values": [
      {"measurement": "Selectivity ratio", "setting": "[16]", "result": 100}
    ]},
    {"smiles": "COc1nccnc1[C@H](C)C1=C(CCN(C)C)Cc2cc(F)ccc21", "values": [
      {"measurement": "Ki", "setting": "[17]", "result": 4.5, "unit": "nM"}
    ]},
    {"smiles": "CN(C)CCC=C1c2ccccc2COc2ccccc21", "note": "[DOXEPIN]", "values": [
      {"measurement": "half-life", "setting": "[18]", "result": 18, "unit": "h"},
      {"measurement": "Time", "setting": "[19]", "result": 8, "unit": "h"},
      {"measurement": "Activity", "setting": "[20]", "result": "inactive"},
      {"measurement": "Activity", "setting": "[21]", "result": "Non-toxic"}
    ]}
  ]
}
